Earlier results as cited in patent US5849729A, “Use of hydrolyzed cocoa butter for percutaneous absorption” (Hershey Foods Corporation, priority 1995, dated 1998).
Like-named read-outs stand apart in the source and are kept apart here.

Conditions: cited from earlier work
[1] = in vivo, topical or ocular, 120 h

SMILES | Absorption Rate 0-12 (in vivo) | Absorption Rate 12-24 (in vivo) | Absorption Rate 24-48 (in vivo) | Absorption Rate 48-72 (in vivo) | Absorption Rate 72-96 (in vivo) | Absorption Rate 96-120 (in vivo) | Total Absorption (T of above) (topical, 0-120 hrs) | Absorption Rate 0-12 (topical, 0-12 hrs) | Absorption Rate 12-24 (topical, 12-24 hrs) | Absorption Rate 24-48 (topical, 24-48 hrs) | Absorption Rate 48-72 (topical, 48-72 hrs) | Absorption Rate 72-96 (topical, 72-96 hrs) | Absorption Rate 96-120 (topical, 96-120 hrs) | absorption through the skin of closely related corticosteroid compounds (published literature, topical) | Total Absorption (T of above) [1] | absorption through the skin of closely related corticosteroid compounds (in vivo, topical or ocular)
C[C@]12CCC(=O)C=C1CC[C@@H]1[C@@H]2CC[C@@]2(C)[C@H]1CC[C@]2(O)C(=O)CO [17-OII DOC] | .041 % hr | .101 % hr | .084 % hr | .076 % hr | .062 % hr | .065 % hr | 8.41 % of the dose | – | – | – | – | – | – | – | – | –
CC(=O)[C@@]1(O)CC[C@H]2[C@@H]3CCC4=CC(=O)CC[C@]4(C)[C@H]3CC[C@@]21C [17-OII Progesterone] | – | – | – | – | – | – | 14.76 % of the dose | – | – | – | – | – | – | – | – | –
C[C@]12CCC(=O)C=C1CC[C@@H]1[C@@H]2CC[C@]2(C)C(=O)CC[C@@H]12 [Androstenedione] | – | – | – | – | – | – | 13.47 % of the dose | .183 % hr | .334 % hr | .155 % hr | .076 % hr | .043 % hr | .028 % hr | – | – | –
C[C@]12C[C@H](O)[C@H]3[C@@H](CCC4=CC(=O)CC[C@@]43C)[C@@H]1CC[C@@H]2C(=O)CO [Corticosterone] | – | – | – | – | – | – | 8.78 % of the dose | .013 % hr | .065 % hr | .139 % hr | .070 % hr | .050 % hr | .039 % hr | – | – | –
C[C@]12CCC(=O)C=C1CC[C@@H]1[C@@H]2C(=O)C[C@@]2(C)[C@H]1CC[C@]2(O)C(=O)CO [Cortisone] | – | – | – | – | – | – | 3.38 % of the dose | .015 % hr | .037 % hr | .039 % hr | .036 % hr | .032 % hr | .024 % hr | 1-3 % of the dose | – | –
C[C@]12CC[C@H](O)CC1=CC[C@@H]1[C@@H]2CC[C@]2(C)C(=O)CC[C@@H]12 [Dehydroepiandrosterone] | – | – | – | – | – | – | 18.45 % of the dose | .265 % hr | .446 % hr | .249 % hr | .091 % hr | .046 % hr | .028 % hr | – | – | –
C[C@]12CC[C@H]3[C@@H](CCC4=CC(=O)CC[C@@]43C)[C@@H]1CC[C@@H]2C(=O)CO [Desoxycorticosterone] | – | – | – | – | – | – | – | .197 % hr | .313 % hr | .143 % hr | .069 % hr | .035 % hr | .020 % hr | – | 12.55 % of the dose | –
C[C@@H]1C[C@H]2[C@@H]3CCC4=CC(=O)C=C[C@]4(C)[C@@]3(F)[C@@H](O)C[C@]2(C)[C@@]1(O)C(=O)CO [Dexamethasone] | – | – | – | – | – | – | .40 % of the dose | .005 % hr | .003 % hr | .004 % hr | .003 % hr | .002 % hr | .002 % hr | – | – | –
C[C@]12CC[C@@H]3c4ccc(O)cc4CC[C@H]3[C@@H]1CC[C@@H]2O [Estradiol] | .008 % hr | .056 % hr | .099 % hr | .101 % hr | .107 % hr | .103 % hr | – | – | – | – | – | – | – | – | 10.62 % of the dose | –
CC1(C)O[C@@H]2C[C@H]3[C@@H]4C[C@H](F)C5=CC(=O)C=C[C@]5(C)[C@@]4(F)[C@@H](O)C[C@]3(C)[C@]2(C(=O)CO)O1 [Flucinoione Acetonide, fluocinolone acetonide] | .002 % hr | .011 % hr | .012 % hr | .016 % hr | .008 % hr | .005 % hr | 1.34 % of the dose | – | – | – | – | – | – | 1-3 % of the dose | – | –
CC(=O)OCC(=O)[C@@]1(O)CC[C@H]2[C@@H]3CCC4=CC(=O)CC[C@]4(C)[C@H]3[C@@H](O)C[C@@]21C [Hydrocortisone Acetate] | .020 % hr | .089 % hr | .032 % hr | .024 % hr | .015 % hr | .008 % hr | – | – | – | – | – | – | – | – | 2.55 % of the dose | 1-3 % of the dose
C[C@]12CCC(=O)C=C1CC[C@@H]1[C@@H]2[C@@H](O)C[C@@]2(C)[C@H]1CC[C@]2(O)C(=O)CO [Hydrocortisone] | .005 % hr | .023 % hr | .019 % hr | .018 % hr | .016 % hr | .010 % hr | – | – | – | – | – | – | – | – | 1.87 % of the dose | 1-3 % of the dose
CC(=O)[C@H]1CC[C@H]2[C@@H]3CCC4=CC(=O)CC[C@]4(C)[C@H]3CC[C@]12C [Progesterone] | .208 % hr | .264 % hr | .135 % hr | .045 % hr | .024 % hr | .011 % hr | – | – | – | – | – | – | – | – | 10.81 % of the dose | –
CC(=O)O[C@H]1CC[C@H]2[C@@H]3CCC4=CC(=O)CC[C@]4(C)[C@H]3CC[C@]12C [Testosterone Acetate] | – | – | – | – | – | – | 4.62 % of the dose | .103 % hr | .133 % hr | .048 % hr | .015 % hr | .007 % hr | .004 % hr | – | – | –
CCC(=O)O[C@H]1CC[C@H]2[C@@H]3CCC4=CC(=O)CC[C@]4(C)[C@H]3CC[C@]12C [Testosterone Propionate] | – | – | – | – | – | – | 3.44 % of the dose | .061 % hr | .096 % hr | .035 % hr | .015 % hr | .009 % hr | .005 % hr | – | – | –
C[C@]12CC[C@H]3[C@@H](CCC4=CC(=O)CC[C@@]43C)[C@@H]1CC[C@@H]2O [Testosterone] | – | – | – | – | – | – | 13.24 % of the dose | .147 % hr | .364 % hr | .156 % hr | .066 % hr | .036 % hr | .018 % hr | – | – | –
